Experimental findings from patent US12122780B2, “Pyrimidinyl group-containing tricyclic compound serving as c-Met inhibitor” (JIANGSU AOSAIKANG PHARMACEUTICAL CO., LTD., priority 2019, dated 2024) are described below.

The target of one assay is c-Met enzyme (Homo sapiens (Human), UniProt P08581). Description: c-Met enzyme activity inhibition (Promega c-Met Kinase Enzyme System, ADP-Glo). The assay is classed as biochemical. As to conditions: 10 μM ATP, 60 min, 30° C. The procedure: To detect the inhibitory effect of the compounds on c-Met enzyme activity.
The c-Met Kinase Enzyme System was purchased from Promega. Envision multi-label analyzer (PerkinElmer).
The kinase buffer in the kit was used to dilute the enzyme, substrate, ATP and inhibitor.
The compound to be tested was diluted 5-fold to the eighth concentration with a discharge gun, i.e., from 50 μM to […], with a final DMSO concentration of 5%, and double duplicate wells experiment was set. 1 μL of each concentration gradient of the inhibitor, 2 μL of c-Met enzyme (4 ng), 2 μL of a mixture of the substrate and ATP (10 μM ATP, 0.2 μg/μL poly E4Y1) were added to the microplate, and the final concentration gradient of the compound of 10 μM was diluted to 0.13 nM. The reaction system was placed at 30° C. and the reaction was carried out for 60 minutes. When the reaction was completed, 5 μL of ADP-Glo reagent was added to each well and the reaction was carried out at 30° C. for another 40 minutes, when the reaction was completed, 10 μL of kinase detection reagent was added to each well, then the reaction was carried out at 30° C. for still another 30 minutes, chemiluminescence was read by the PerkinElmer Envision multi-label analyzer with an integration time of 0.5 seconds.
Using the equation (Sample-Min)/(Max-Min)*100% to convert the original data to the inhibition rate, the IC50 value can be obtained by curve fitting with four parameters (obtained by log(inhibitor) vs. response in GraphPad Prism—Variable slope mode).

The subject of a further assay is EBC-1 cells. In words: EBC-1 cell proliferation experiment (CellTiter-Glo). The assay is classed as cell-based, human. As to conditions: Homo sapiens, EBC-1, 72 h, 3 days. How it is done: MEM medium, fetal bovine serum, penicillin/streptomycin antibiotics were purchased from Wisent. EBC-1 cell line was purchased from Nanjing COBIO Bioscience Co., LTD. Envision multi-label analyzer (PerkinElmer).
EBC-1 cells were seeded in a white 96-well plate, […] cell suspension per well, which contained 3000 EBC-1 cells. The cell plate was placed in a carbon dioxide incubator for overnight culture.
The compound to be tested was diluted 5-fold to the eighth concentration with a discharge gun, i.e., from 2 mM to […], and double duplicate wells experiment was set. 78 μL of the medium was added to the middle plate, then 2 μL per well of gradient diluted compound was transferred to the corresponding position on the middle plate, then mixed well and 20 μL per well was transferred to the cell plate. The cell plate was cultured in a carbon dioxide incubator for 3 days. Another cell plate was prepared and the signal values were read on the day of dosing as […] to be used in the data analysis. 25 μL of Promega CellTiter-Glo was added to each well of this cell plate, and incubated at room temperature for 10 minutes to stabilize the luminescence signal. Readings were taken using a PerkinElmer Envision multi-label analyzer.
25 μL of Promega CellTiter-Glo reagent was added to each well of this cell plate, and incubated at room temperature for 10 minutes to stabilize the luminescence signal. Readings were taken using a PerkinElmer Envision multi-label analyzer.
Using the equation (Sample-Min)/(Max-Min)*100% to convert the original data to the inhibition rate, the IC50 value can be obtained by curve fitting with four parameters (obtained by “log(inhibitor) vs. response in GraphPad Prism—Variable slope mode).
(In general: ATP-based viability assays read luminescence as a measure of living cells.)

Where a name gives a salt, the structure may show the parent alone.

Chain of c-Met enzyme (P08581 956-1390): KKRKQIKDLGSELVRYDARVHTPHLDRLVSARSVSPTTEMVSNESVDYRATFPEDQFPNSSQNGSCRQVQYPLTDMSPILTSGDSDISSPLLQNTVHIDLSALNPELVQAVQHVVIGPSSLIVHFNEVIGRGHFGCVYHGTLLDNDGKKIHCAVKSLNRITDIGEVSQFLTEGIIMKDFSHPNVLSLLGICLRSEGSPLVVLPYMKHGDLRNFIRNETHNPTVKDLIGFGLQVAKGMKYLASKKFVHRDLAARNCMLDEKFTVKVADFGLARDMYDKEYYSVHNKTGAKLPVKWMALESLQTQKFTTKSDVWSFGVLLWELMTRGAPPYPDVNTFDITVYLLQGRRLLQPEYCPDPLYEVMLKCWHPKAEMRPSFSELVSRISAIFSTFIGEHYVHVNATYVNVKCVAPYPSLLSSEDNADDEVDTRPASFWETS

On to `CN1CCC(COc2cnc(-c3cccc(Cn4c(=O)ccc5c4nn4ccc(C#N)cc54)c3)nc2)CC1` [Hydrochloride of compound 27], for which the IC50 is 17.7 nM at c-Met enzyme and 38 nM in the assay with EBC-1 cells.

Turning to `CN1CCC(COc2cnc(-c3cccc(Cn4c(=O)ccn5c6cc(C#N)ccc6nc45)c3)nc2)CC1` [Hydrochloride of compound 11], the IC50 at c-Met enzyme was determined as 3.26 nM; in the assay on EBC-1 cells, 6.99 nM.

As to `CN1CCC(COc2cnc(-c3cccc(Cn4c5c(ccc4=O)-c4cc(C#N)ccc4C5(F)F)c3)nc2)CC1` [Formate of compound 1], the IC50 is 42 nM on c-Met enzyme and 133 nM in the assay on EBC-1 cells.

For `CN1CCC(COc2cnc(-c3cccc(Cn4c(=O)ccn5c6ccc(C#N)cc6nc45)c3)nc2)CC1` [Hydrochloride of compound 9], the IC50 on c-Met enzyme is 21.8 nM; in the assay with EBC-1 cells, 31.8 nM.

In the case of `N#Cc1ccc2nc3n(Cc4cccc(-c5ncc(OCC6CCN(C7COC7)CC6)cn5)c4)c(=O)ccn3c2c1` [Hydrochloride of compound 26], the results for the concentration for half-maximal inhibition (IC50) against c-Met enzyme and in the assay with EBC-1 cells were 3.12 nM and 16.2 nM, respectively.

With `CN1CCC(COc2cnc(-c3cccc(Cn4c5c(ccc4=O)-c4cc(C#N)ccc4C5=O)c3)nc2)CC1` [Formate of compound 2], the IC50 at c-Met enzyme was 10 nM; with EBC-1 cells it was 5.79 nM.

Take `CN1CC2(CC(Oc3cnc(-c4cccc(Cn5c(=O)ccn6c7cc(C#N)ccc7nc56)c4)nc3)C2)C1` [Hydrochloride of compound 28]: the figures for the IC50 on c-Met enzyme and in the assay with EBC-1 cells were 58 nM and 66 nM, respectively.

In the case of `CN1CCC(COc2cnc(-c3cccc(Cn4c(=O)ccn5c6cc(C#N)ccc6cc45)c3)nc2)CC1` [Hydrochloride of compound 10], the figures for the 50% inhibitory concentration (IC50) against c-Met enzyme and in the assay with EBC-1 cells were 15.7 nM and 31.6 nM, respectively.

By IC50 is commonly meant the concentration that inhibits the measured activity by half. A low value points to inhibition by little substance.
